Tested on: acidic gastric secretion
Assay: inhibition of the acidic gastric hypersecretion induced by histamine in dogs (gastric fistula and Haidenhain pouche)
Type: in vivo, mongrel dogs
Details: mean of four dogs; for % inhibition of the acidic gastric secretion over the controls in the H.P.: histamine 160 μg kg^-1 h^-1, denervated Haidenhain pouche; for % inhibition of the acidic gastric secretion over the controls in the G.F.: histamine 160 μg kg^-1 h^-1, innervated gastric fistula (main stomach)
Method: In the actual practice, the gastric antisecretory properties were evaluated on the basis of their effectiveness in inhibiting the hyperacidity induced by hystamine in dogs. Hystamine, which is a potent stimulator of the acidic gastric secretion (see Bertaccini et al. Eur. Journ. Pharmacol., 28, 360, 1974), was administered intravenously by continuous infusion during the experiments.
A group of four mongrel dogs weighing approximately 20 Kg was used in each experiments.
The dogs were surgically operated in the stomachs according to the method described by Bertaccini et al. (see above), in order to provide each animal with an innervated gastric fistula (G.F.) or main stomach, and a denervated Haidenhain pouche (H.P.).
The main stomach and the Haidenhain pouche were each equipped with a cannula in order to allow the gastric juices to drain to the exterior by gravity. The two surgically prepared cavities allow to determine if the antisecretory effect has to be ascribed to a direct action of the tested compounds on the oxyntic cells ie., the cells of the gastric walls secreting acidity, (inhibition of the hyperacidity produced both by G.F. and H.P.) or if it is mediated by the autonomous nervous system (inhibition of the hyperacidity produced only by G.F.). After a period of four to five weeks which was allowed to the animals for recovery, the dogs were administered intravenously with histamine in the amount of 160 micrograms of hystamine per kg. of body weight per hour (160 μg-kg^-1 h^-1) in order to stimulate the acidic secretion both in the G.F. and in the H.P. The maximum secretory effect was reached after approximately 1 hour and the infusion of histamine was prolonged for approximately three further hours. During the whole period of infusion, the acidic output was collected every ten minutes and titrated by means of NaOH 0.1 to pH 7.0 on an automatic titrator (Radiometer, Copenhagen). The so-obtained values (mean of four dogs) were considered as the "control values". Food, but not water, was withheld 18 hours before each experiments. At the beginning, the dogs were administered with 160 μg kg^-1 h^-1 of histamine. After reaching the maximum secretory value ie., approximately after 1 hour, the compound to be tested was administered intravenously at predetermined dosages per kg. of body weight during one hour, while the infusion of histamine at the above dosage was carried on. During this period the acidic output both from the G.F. and H.P. was collected every ten minutes and titrated as described above.
By means of the so obtained values (mean of four dogs) and the corresponding "control values" ie., the values obtained by determining the acidic output for one hour after the maximum secretory effect due to histamine was reached, it was possible to establish, by obvious calculations, the percent inhibition of the acidic gastric secretion both from the G.F. and the H.P. of the tested compounds versus the controls.
Representative experiments have shown that dosages varying from about 50 to about 100 μg/kg hour practically block the gastric hyperacidity induced by histamine both in the G.F. and in the H.P. This can be seen from the following table, wherein the results obtained by testing the compound of example 2 having [α]D^20 =-77.7 (c=0.67% in CHCl3) and the compound of example 5 having [α]D^20 =-45 (c=0.46% in CHCl3) are reported: […]

[1] = 10 μg kg^-1 h^-1, intravenous during one hour
[2] = 25 μg kg^-1 h^-1, intravenous during one hour
[3] = 50 μg kg^-1 h^-1, intravenous during one hour
[4] = 100 μg kg^-1 h^-1, intravenous during one hour

Row | SMILES | % inhibition of the acidic gastric secretion over the controls in the H.P. [1] [%] | % inhibition of the acidic gastric secretion over the controls in the G.F. [1] [%] | % inhibition of the acidic gastric secretion over the controls in the H.P. [2] [%] | % inhibition of the acidic gastric secretion over the controls in the G.F. [2] [%] | % inhibition of the acidic gastric secretion over the controls in the H.P. [3] [%] | % inhibition of the acidic gastric secretion over the controls in the G.F. [3] [%] | % inhibition of the acidic gastric secretion over the controls in the H.P. [4] [%] | % inhibition of the acidic gastric secretion over the controls in the G.F. [4] [%]
1 | CCCCC(OC)C(O)/C=C/[C@H]1[C@H](O)CC(=O)[C@@H]1C/C=C\CCCC(=O)OC (single isomer, unassigned) [Example 2, 11α, 15-Dihydroxy-16-methoxy-9-oxo-prosta-5(Z),13(E)-diene-1-oic-acid methyl esters] | 25 | 25 | 50 | 50 | 95 | 95 |  | 
2 | CCCCC(C)(OC)C(O)/C=C/[C@H]1[C@H](O)CC(=O)[C@@H]1C/C=C\CCCC(=O)OC (single isomer, unassigned) [Example 5, 11α,15-Dihydroxy-16-methyl-16-methoxy-9-oxo-prosta-5(Z), 13(E)-diene-1-oic acid methyl esters] | 20 | 20 |  |  | 55 | 55 | 100 | 100
